Mass density, Normal boiling temperature and refractive index data for 3 compounds are collected here from the NIST ThermoML archive (doi:10.1016/j.jct.2005.03.017).

As a reminder, the mass density is the mass of a sample divided by its volume. What is called refractive index is a measure of how strongly the sample bends light.

Numbers after ± are expanded uncertainties.

For data set [1] the following is noted: Liquid; for mass density: 293.15 K, 101.33 kPa; for Normal boiling temperature: Ebulliometric method (Recirculating still).
Data set [2] is described as follows: refractive index (Na D-line) (dimensionless). To be noted: 293.15 K; 101.33 kPa; Liquid; Standard Abbe refractometry.

In the case of `CCC(=O)O` [propanoic acid], in data set [1], the mass density was determined as 992.7 ± 0.5 kg/m3 and the Normal boiling temperature is 141.0 ± 0.1 °C. Also, in data set [2], the refractive index was determined as 1.3811 ± 0.0008.
Regarding `O` [water], in data set [1], the Normal boiling temperature amounted to 100.08 ± 0.1 °C. In addition, the refractive index in data set [2] was determined as 1.3326 ± 0.0008.
For `O=C1CCCCC1` [cyclohexanone], in data set [1], the mass density is reported as 947.3 ± 0.6 kg/m3 and the Normal boiling temperature came to 155.54 ± 0.1 °C. In data set [2], the refractive index is given as 1.451 ± 0.0008.
